Assay results as given in patent publication US20230219963A1, “PYRROLO[2,3-D]PYRIMIDINE DERIVATIVES” (Pfizer Inc., priority 2020, published 2023).

Experiments:
[1] = biological target: JAK2 (Homo sapiens, UniProt O60674); assay: JAK Caliper Enzyme Assay at 1 mM ATP (JAK2); format: biochemical
Experimental: JAK Caliper Enzyme Assay at 1 mM ATP
Test article was solubilized in dimethyl sulfoxide (DMSO) to a stock concentration of 30 mM. An 11-point half log dilution series was created in DMSO with a top concentration of 600 μM. […] The compound plates were diluted 1 to 60 resulting in a top final assay compound concentration of 10 μM and a 2% DMSO concentration. Test article and assay controls were added to a 384-well plate. Reaction mixtures contained 20 mM HEPES, pH 7.4, 10 mM magnesium chloride, 0.01% bovine serum albumin (BSA), 0.0005% Tween 20, 1 mM ATP and 1 μM peptide substrate. […] The assays were initiated by the addition of 20 nM JAK1, 1 nM JAK2, 1 nM JAK3 or 1 nM TYK2 enzyme and were incubated at room temperature for three hours for JAK1, 60 minutes for JAK2, 75 minutes for JAK3 or 135 minutes for TYK2. Enzyme concentrations and incubation times were optimized for each new enzyme preps and were modified slightly over time to ensure 20%-30% phosphorylation. The assays were stopped with a final concentration of 10 mM EDTA, 0.1% Coating Reagent and 100 mM HEPES, pH=7.4. The assay plates were placed on a Caliper Life Science Lab Chip 3000 (LC3000) instrument, and each well was sampled using appropriate separation conditions to measure the unphosphorylated and phosphorylated peptide.

[2] = system: IFNg induced pSTATI; assay: IFNγ-induced pSTAT1 in human whole blood (CD14+ cells); format: cell-based; conditions: JAK1/JAK2, read-out: IFNg induced pSTATI, cellular potency IC50
Experimental: (§1) Human whole blood was collected from healthy donors via vein puncture into Vacutainer collection tubes containing sodium heparin in accordance with Pfizer protocols (Protocol No. GOHW RDP-01) approved by the Shulman Institutional Review Board. Blood was warmed to 37° C. priorto use. Human whole blood was aliquoted (90 μL/well) in 96-well, deep-well, V-bottom plates and treated with compounds (5 μL/well) at different concentrations up to 60 μM (0.2% DMSO final) at 37° C. for 60 minutes. This was followed by a challenge with IFNα (5000 U/mL), IFNγ (100 ng/mL), IL-6 (50 ng/mL), IL-10 (30 ng/mL), IL-12 (30 ng/mL), IL-15 (30 ng/mL), IL-21 (50 ng/mL), IL-23 (25 ng/mL), IL-27 (1000 ng/mL), EPO (2 U/mL), TSLP (50 ng/mL) or PBS and incubated for 15 minutes. Anti-cell surface antibodies were added 15 minutes prior to cytokine stimulation; anti-CD3-BV421 (0.5 μL/well) to IL-6-treated and TSLP-treated samples and anti-CD14-BV421 (0.5 μL/well) to IFNγ-treated samples. Samples were treated with warm 1×Lyse/Fix buffer (700 μL/well) to terminate activation and further incubated at 37° C. for 20 minutes to lyse red blood cells. Plates were centrifuged at 300×g for 5 minutes, supernatant was aspirated, and cells were washed with 800 μL/well of staining buffer (D-PBS containing 0.1% FBS and 0.01% sodium azide). Washed cell pellets were resuspended in 350 μL/well of prechilled 90% methanol and incubated at 4° C. for 30 minutes. After the removal of 90% methanol, cells were washed once with staining buffer. All samples were finally suspended in 150 μL/well of the desired anti-phospho-STAT antibodies at 1:150 dilution in staining buffer; anti-pSTAT1-AF647 in IFNγ treated samples; anti-pSTAT1-AF488 and anti-pSTAT3-AF647 in IL-6-treated samples, anti-pSTAT3-AF647 in IFNα, IL-10, IL-21, IL-23 and IL-27 treated samples, anti-pSTAT4-AF647 in IL-12 treated samples, anti-pSTAT5-AF-647 in EPO, IL-15 and TSLP-treated samples. Human primary keratinocytes were cultured in DermaLife™ medium with supplement kit to expand cell population. Cell passages 2 to 5 were used in the assays. Cells were harvested at ˜80% confluence, suspended in warm DermaLife™ medium, aliquoted (90 μL/well) in 96-well, deep-well, V-bottom plates, and incubated at 37° C. for 30 minutes. Cells were then treated with compounds (0.0003 to 20 μM) for 60 minutes and followed by stimulation with IL-4 (2 ng/mL) or IL-13 (20 ng/mL) at 37° C. for 15 minutes. […]
(§2) After overnight incubation at 4° C., anti-pSTAT stained samples were transferred into 96-well polypropylene U-bottom plates and flow cytometric analysis was performed on a LSR Fortessa™ equipped with a HTS plate loader. […] Background fluorescence was defined using unstimulated cells and a gate was placed at the foot of the peak to include ˜0.5% gated population. […]

[3] = system: IL-27 induced pSTAT3; assay: IL-27-induced pSTAT3 in human whole blood (lymphocytes); format: cell-based; conditions: Lymphocyte, JAK1/JAK2, read-out: IL-27 induced pSTAT3, cellular potency IC50
Experimental: as §1, §2

[4] = system: IL-15 induced pSTAT5; assay: IL-15-induced pSTAT5 in human whole blood (lymphocytes); format: cell-based; conditions: Lymphocyte, JAK1/JAK3, read-out: IL-15 induced pSTAT5, cellular potency IC50
Experimental: as §1, §2

[5] = system: IL-21 induced pSTAT3; assay: IL-21-induced pSTAT3 in human whole blood (lymphocytes); format: cell-based; conditions: Lymphocyte, JAK1/JAK3, read-out: IL-21 induced pSTAT3, cellular potency IC50
Experimental: as §1, §2

[6] = system: IFNa induced pSTAT3; assay: IFNα-induced pSTAT3 in human whole blood (lymphocytes); format: cell-based; conditions: Lymphocyte, JAK1/TYK2, read-out: IFNa induced pSTAT3, cellular potency IC50
Experimental: Human whole blood was collected from healthy donors via vein puncture into Vacutainer collection tubes containing sodium heparin in accordance with Pfizer protocols (Protocol No. GOHW RDP-01) approved by the Shulman Institutional Review Board. Blood was warmed to 37° C. priorto use. Human whole blood was aliquoted (90 μL/well) in 96-well, deep-well, V-bottom plates and treated with compounds (5 μL/well) at different concentrations up to 60 μM (0.2% DMSO final) at 37° C. for 60 minutes. This was followed by a challenge with IFNα (5000 U/mL), IFNγ (100 ng/mL), IL-6 (50 ng/mL), IL-10 (30 ng/mL), IL-12 (30 ng/mL), IL-15 (30 ng/mL), IL-21 (50 ng/mL), IL-23 (25 ng/mL), IL-27 (1000 ng/mL), EPO (2 U/mL), TSLP (50 ng/mL) or PBS and incubated for 15 minutes. Anti-cell surface antibodies were added 15 minutes prior to cytokine stimulation; anti-CD3-BV421 (0.5 μL/well) to IL-6-treated and TSLP-treated samples and anti-CD14-BV421 (0.5 μL/well) to IFNγ-treated samples. Samples were treated with warm 1×Lyse/Fix buffer (700 μL/well) to terminate activation and further incubated at 37° C. for 20 minutes to lyse red blood cells. Plates were centrifuged at 300×g for 5 minutes, supernatant was aspirated, and cells were washed with 800 μL/well of staining buffer (D-PBS containing 0.1% FBS and 0.01% sodium azide). Washed cell pellets were resuspended in 350 μL/well of prechilled 90% methanol and incubated at 4° C. for 30 minutes. After the removal of 90% methanol, cells were washed once with staining buffer. […]
as §2

[7] = system: IL-23 induced pSTAT3; assay: IL-23-induced pSTAT3 in human whole blood (lymphocytes); format: cell-based; conditions: Lymphocyte, JAK2/TYK2, read-out: IL-23 induced pSTAT3, cellular potency IC50
Experimental: as §1, §2

Chain of JAK2 (O60674 whole entry): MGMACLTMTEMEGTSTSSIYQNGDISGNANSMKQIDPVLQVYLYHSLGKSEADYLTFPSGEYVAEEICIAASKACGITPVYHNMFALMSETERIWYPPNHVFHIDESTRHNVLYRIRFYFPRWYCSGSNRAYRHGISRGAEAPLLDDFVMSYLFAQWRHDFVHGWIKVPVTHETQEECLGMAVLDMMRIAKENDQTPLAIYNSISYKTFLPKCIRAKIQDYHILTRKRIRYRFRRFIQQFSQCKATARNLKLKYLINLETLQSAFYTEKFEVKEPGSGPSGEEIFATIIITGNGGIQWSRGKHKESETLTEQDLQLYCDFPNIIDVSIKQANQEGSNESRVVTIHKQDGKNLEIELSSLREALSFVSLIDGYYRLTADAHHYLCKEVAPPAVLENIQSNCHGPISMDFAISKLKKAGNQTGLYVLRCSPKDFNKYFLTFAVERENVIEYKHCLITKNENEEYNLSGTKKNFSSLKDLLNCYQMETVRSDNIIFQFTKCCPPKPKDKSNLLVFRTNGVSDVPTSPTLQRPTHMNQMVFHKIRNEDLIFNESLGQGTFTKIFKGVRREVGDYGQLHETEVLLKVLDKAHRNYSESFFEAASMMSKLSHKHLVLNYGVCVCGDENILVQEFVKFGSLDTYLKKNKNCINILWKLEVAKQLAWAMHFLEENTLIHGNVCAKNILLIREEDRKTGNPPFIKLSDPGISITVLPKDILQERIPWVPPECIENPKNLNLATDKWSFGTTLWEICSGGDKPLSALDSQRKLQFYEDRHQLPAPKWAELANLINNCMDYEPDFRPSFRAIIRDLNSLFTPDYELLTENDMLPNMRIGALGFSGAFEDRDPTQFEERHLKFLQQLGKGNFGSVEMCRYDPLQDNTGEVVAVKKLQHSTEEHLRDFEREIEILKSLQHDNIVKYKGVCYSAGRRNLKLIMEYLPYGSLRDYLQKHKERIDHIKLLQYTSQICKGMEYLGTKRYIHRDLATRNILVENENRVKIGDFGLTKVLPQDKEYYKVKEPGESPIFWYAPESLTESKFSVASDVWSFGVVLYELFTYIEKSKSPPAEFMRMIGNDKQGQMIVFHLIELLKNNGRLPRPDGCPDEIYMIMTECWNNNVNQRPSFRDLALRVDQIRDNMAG

IC50 [1] [µM]	IC50 [2] [µM]	IC50 [3] [µM]	IC50 [4] [µM]	IC50 [5] [µM]	IC50 [6] [µM]	IC50 [7] [µM]	SMILES
0.886	2.16	0.234	0.353	0.487	0.0905	6.21	C[C@H](O)CS(=O)(=O)N[C@H]1C[C@@H](N(C)c2ncnc3[nH]ccc23)C1 (single isomer, unassigned) [IA (M2)]
2.28	4.25	0.572	0.8	1.05	0.225	13.8	C[C@@H](O)CS(=O)(=O)N[C@H]1C[C@@H](N(C)c2ncnc3[nH]ccc23)C1 (single isomer, unassigned) [IC (M3)]
1.14	1.95	0.382	0.558	0.844	0.296	26.2	CN(c1ncnc2[nH]ccc12)[C@H]1C[C@@H](NS(=O)(=O)CCCO)C1 [IB (M1), 3-Hydroxy-N-(cis-3-(methyl(7H-pyrrolo[2,3-d]pyrimidin-4-yl)amino)cyclobutyl)propane-1-sulfonamide]
